Data taken from patent EP0159194B1, “Iron 3-hydroxypyrone or 3-hydroxypyridone complexes and pharmaceutical compositions containing them” (priority 1984, dated 1985).

Molecular target: apotransferrin (Homo sapiens, UniProt P02787)
Assay: Donation of iron to apotransferrin (59Fe, Sephadex G10 separation)
Assay type: biochemical
Conditions: 5 x 10^-5M apotransferrin, 1 x 10^-4M iron, pH 7.4
Description: (Maltol)2 (ascorbic acid) iron(III) was prepared in situ by dissolving maltol and ascorbic acid in a 2:1 molar ratio in an aqueous medium containing morpholine propane sulphonate (MOPS, 25 mM) and sodium hydrogen carbonate (30 mM), the pH being adjusted to 7.4 with hydrochloric acid (50% v/v). To the medium was added a solution of ^59Fe enriched ferric chloride in 0.1 M aqueous hydrochloric acid containing a molar amount of iron equivalent to that of the ascorbic acid. Equal volumes of the solution of the iron complex and of apotransferrin in the same aqueous medium were mixed to provide concentrations in the mixture of 5 x 10-^5M of apotransferrin and 1 x 10-^4M of iron.
The mixture was incubated at room temperature in separate experiments for 10 and 60 minutes and an aliquot was then added to a Sephadex G10 column equilibrated with the same aqueous medium described above and the column eluted with that medium, fractions being collected and counted. The percentages of ^59Fe associated with apotransferrin and with ligands are calculated as cpm iron-apotransferrin/total cpm and cpm iron-(maltol)2 (ascorbic acid)/total cpm.

[1] = after 10 minutes at room temperature
[2] = after 60 minutes at room temperature

apotransferrin, sequence (P02787 20-698): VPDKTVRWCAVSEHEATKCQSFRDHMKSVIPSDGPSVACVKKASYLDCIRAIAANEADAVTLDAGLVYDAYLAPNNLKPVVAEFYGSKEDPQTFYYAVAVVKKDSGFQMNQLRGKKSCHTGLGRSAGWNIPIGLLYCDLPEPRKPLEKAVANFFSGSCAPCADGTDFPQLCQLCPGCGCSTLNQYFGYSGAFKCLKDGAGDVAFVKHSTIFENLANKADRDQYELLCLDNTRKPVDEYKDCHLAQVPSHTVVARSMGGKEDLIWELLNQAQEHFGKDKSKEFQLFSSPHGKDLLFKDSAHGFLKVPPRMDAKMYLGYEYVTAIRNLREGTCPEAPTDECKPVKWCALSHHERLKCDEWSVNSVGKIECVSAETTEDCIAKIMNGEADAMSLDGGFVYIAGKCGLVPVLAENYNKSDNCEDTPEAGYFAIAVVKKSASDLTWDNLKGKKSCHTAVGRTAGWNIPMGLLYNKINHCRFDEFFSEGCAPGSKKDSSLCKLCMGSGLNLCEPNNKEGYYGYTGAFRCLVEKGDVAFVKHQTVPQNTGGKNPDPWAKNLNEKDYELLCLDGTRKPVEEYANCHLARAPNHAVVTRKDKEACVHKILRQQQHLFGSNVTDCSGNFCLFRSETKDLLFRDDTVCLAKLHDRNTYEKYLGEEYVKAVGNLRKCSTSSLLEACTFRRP

59Fe associated with apotransferrin [1]: 43%
59Fe associated with the ligands [1]: 57%
59Fe donated to the apotransferrin [2]: 75%
59Fe remaining associated with the ligands [2]: 25%
Substance: (maltol)2 (ascorbic acid) iron(III) complex
